Values quoted from earlier work, collected in patent publication EP4454482A1, “PREPARATIONS COMPRISING OLEANOL GLYCOSIDES” (Analyticon Discovery GmbH, priority 2023, dated 2024).

Conditions: water (20° dH) at 20 °C; solid active agent

solubility in water: less than 5 g/L
Structure (SMILES): Nc1nc2c(ncn2COCCO)c(=O)[nH]1 [Acyclovir, 2-Amino-1,9-dihydro-9-((2-hydroxyethoxy)methyl)-6H-Purin-6-one]
